How the values were obtained:
Test in all cases: Postemergence herbicidal activity, greenhouse, visual injury after 20-22 d
Format in all cases: in vivo
[1] = system: barnyardgrass (Echinochloa crus-galli, ECHCG); conditions: two trials
Protocol: (§1) Seeds of the desired test plant species were planted in Sun Gro MetroMix® 306 planting mixture, which typically has a pH of 6.0 to 6.8 and an organic matter content of about 30 percent, in plastic pots with a surface area of 103.2 square centimeters (cm^2). When required to ensure good germination and healthy plants, a fungicide treatment and/or other chemical or physical treatment was applied. The plants were grown for 7-36 days (d) in a greenhouse with an approximate 14-hour (h) photoperiod which was maintained at about 23° C. during the day and 22° C. during the night. Nutrients and water were added on a regular basis and supplemental lighting was provided with overhead metal halide 1000-Watt lamps as necessary. The plants were employed for testing when they reached the second or third true leaf stage.
(§2) An emulsifiable concentrate (EC) formulation containing Compound 1 at 100 gai/L was prepared by combining Compound 1 with 1-butyl-2-pyrrolidinone (Tamisolve NxG; 360.5 g/L), benzyl acetate (544.6 g/L) and Agnique MBL 520L surfactant (52.9 g/L). […] The concentrated stock solutions were diluted with an aqueous mixture of 1.5% v/v of Agri-dex crop oil concentrate to provide the appropriate application rates. Compound requirements are based upon a 12 milliliter (mL) application volume at a rate of 187 liters per hectare (L/ha). Spray solutions of the experimental compound mixtures were prepared by adding the stock solutions to the appropriate amount of dilution solution to form a 12 mL spray solution in two-way combinations. Formulated compounds were applied to the plant material with an overhead Mandel track sprayer equipped with 8002E nozzles calibrated to deliver 187 L/ha over an application area of 0.503 square meters (m^2) at a spray height of […] above average plant canopy. Control plants were sprayed in the same manner with the solvent blank. Application rates for component (a) are in g ai/ha, and application rates for component (b) are in g ai/ha.
(§3) The treated plants and control plants were placed in a greenhouse as described above and watered by sub-irrigation to prevent wash-off of the test compounds. After 20-22 d, the condition of the test plants as compared with that of the control plants was determined visually and scored on a scale of 0 to 100 percent where 0 corresponds to no injury and 100 corresponds to complete kill. […] The Colby method was used to determine the herbicidal effects expected from the mixtures.

[2] = system: common chickweed (Stellaria media, STEME); conditions: two trials
Protocol: as §1, §2, §3

[3] = system: common lambsquarters (Chenopodium album L., CHEAL)
Protocol: as §1, §2, §3

[4] = system: giant foxtail (Setaria faberi, SETFA)
Protocol: as §1, §2, §3

[5] = system: grain sorghum (Sorghum vulgare, SORVU); conditions: two trials
Protocol: as §1, §2, §3

[6] = system: ivyleaf morningglory (Ipomoea hederacea, IPOHE); conditions: two trials
Protocol: as §1, §2, §3

[7] = system: kochia (Kochia scoparia, KCHSC)
Protocol: as §1, §2, §3

[8] = system: large crabgrass (Digitaria sanguinalis, DIGSA); conditions: two trials
Protocol: as §1, §2, §3

maize (Zea mays, ZEAMX) = conditions: two trials
Protocol: as §1, §2, §3

[9] = system: pigweed (Amaranthus retroflexus, AMARE); conditions: two trials
Protocol: as §1, §2, §3

[10] = system: poinsettia (Euphorbia heterophylla, EPHHL)
Protocol: as §1, §2, §3

[11] = system: rice (Oryza sativa, ORYSA); conditions: two trials
Protocol: as §1, §2, §3

[12] = system: soybean (Glycine max, GLXMA); conditions: two trials
Protocol: as §1, §2, §3

[13] = system: spring rape (Brassica napus, BRSNN)
Protocol: as §1, §2, §3

[14] = system: sunflower (Helianthus annuus, HELAN); conditions: two trials
Protocol: as §1, §2, §3

[15] = system: thistle (Cirsium arvense CIRAR)
Protocol: as §1, §2, §3

[16] = system: velvetleaf (Abutilon theophrasti, ABUTH)
Protocol: as §1, §2, §3

[17] = system: wild buckwheat (Polygonum convolvulus, POLCO)
Protocol: as §1, §2, §3

[18] = system: wild oat (Avena fatua, AVEFA); conditions: two trials
Protocol: as §1, §2, §3

[19] = system: wild pansy (Viola tricolor, VIOTR)
Protocol: as §1, §2, §3

[20] = system: winter rape (Brassica napus, BRSNW); conditions: two trials
Protocol: as §1, §2, §3

[21] = system: winter wheat (Triticum aestivum, TRZAW); conditions: two trials
Protocol: as §1, §2, §3

[22] = Compound 1 5 g ai/ha alone, Tables 4-5
[23] = Compound 1 5 g ai/ha alone, two trials
[24] = Compound 1 10 g ai/ha alone, Tables 4-5
[25] = Compound 1 10 g ai/ha alone, two trials
[26] = HPPD inhibitor 35 g ai/ha alone
[27] = HPPD inhibitor 35 g ai/ha alone, two trials

Nc1c(F)c(-c2ccc3cc[nH]c3c2F)nc(C(=O)O)c1Cl [Compound 1]
Effect (% visual injury), Obs ([1]; Compound 1 5 g ai/ha alone): 20% | Effect (% visual injury), Obs ([1]; Compound 1 10 g ai/ha alone): 60% | Effect (% visual injury), Obs ([2]; Compound 1 5 g ai/ha alone): 70% | Effect (% visual injury), Obs ([2]; Compound 1 10 g ai/ha alone): 70% | Effect (% visual injury), Obs [3, 22]: 90% | Effect (% visual injury), Obs [3, 23]: 90% | Effect (% visual injury), Obs [3, 24]: 95% | Effect (% visual injury), Obs [3, 25]: 98% | Effect (% visual injury), Obs [4, 22]: 50% | Effect (% visual injury), Obs [4, 23]: 30% | Effect (% visual injury), Obs [4, 24]: 75% | Effect (% visual injury), Obs [4, 25]: 63% | Effect (% visual injury), Obs ([5]; Compound 1 5 g ai/ha alone): 0% | Effect (% visual injury), Obs ([5]; Compound 1 10 g ai/ha alone): 50% | Effect (% visual injury), Obs ([6]; Compound 1 5 g ai/ha alone): 10% | Effect (% visual injury), Obs ([6]; Compound 1 10 g ai/ha alone): 10% | Effect (% visual injury), Obs [7, 22]: 65% | Effect (% visual injury), Obs [7, 23]: 63% | Effect (% visual injury), Obs [7, 24]: 75% | Effect (% visual injury), Obs [7, 25]: 68% | Effect (% visual injury), Obs ([8]; Compound 1 5 g ai/ha alone): 0% | Effect (% visual injury), Obs ([8]; Compound 1 10 g ai/ha alone): 10% | Effect (% visual injury), Obs (maize (Zea mays, ZEAMX); Compound 1 5 g ai/ha alone): 0% | Effect (% visual injury), Obs (maize (Zea mays, ZEAMX); Compound 1 10 g ai/ha alone): 0% | Effect (% visual injury), Obs ([9]; Compound 1 5 g ai/ha alone): 75% | Effect (% visual injury), Obs ([9]; Compound 1 10 g ai/ha alone): 97% | Effect (% visual injury), Obs [10, 22]: 75% | Effect (% visual injury), Obs [10, 23]: 86% | Effect (% visual injury), Obs [10, 24]: 100% | Effect (% visual injury), Obs [10, 25]: 99% | Effect (% visual injury), Obs ([11]; Compound 1 5 g ai/ha alone): 0% | Effect (% visual injury), Obs ([11]; Compound 1 10 g ai/ha alone): 10% | Effect (% visual injury), Obs ([12]; Compound 1 5 g ai/ha alone): 95% | Effect (% visual injury), Obs ([12]; Compound 1 10 g ai/ha alone): 100% | Effect (% visual injury), Obs [13, 22]: 50% | Effect (% visual injury), Obs [13, 23]: 50% | Effect (% visual injury), Obs [13, 24]: 80% | Effect (% visual injury), Obs [13, 25]: 80% | Effect (% visual injury), Obs ([14]; Compound 1 5 g ai/ha alone): 90% | Effect (% visual injury), Obs ([14]; Compound 1 10 g ai/ha alone): 90% | Effect (% visual injury), Obs [15, 22]: 50% | Effect (% visual injury), Obs [15, 23]: 50% | Effect (% visual injury), Obs [15, 24]: 60% | Effect (% visual injury), Obs [15, 25]: 60% | Effect (% visual injury), Obs [16, 22]: 50% | Effect (% visual injury), Obs [16, 23]: 50% | Effect (% visual injury), Obs [16, 24]: 50% | Effect (% visual injury), Obs [16, 25]: 55% | Effect (% visual injury), Obs [17, 22]: 40% | Effect (% visual injury), Obs [17, 23]: 53% | Effect (% visual injury), Obs [17, 24]: 40% | Effect (% visual injury), Obs [17, 25]: 58% | Effect (% visual injury), Obs ([18]; Compound 1 5 g ai/ha alone): 0% | Effect (% visual injury), Obs ([18]; Compound 1 10 g ai/ha alone): 0% | Effect (% visual injury), Obs [19, 22]: 10% | Effect (% visual injury), Obs [19, 23]: 8% | Effect (% visual injury), Obs [19, 24]: 15% | Effect (% visual injury), Obs [19, 25]: 13% | Effect (% visual injury), Obs ([20]; Compound 1 5 g ai/ha alone): 40% | Effect (% visual injury), Obs ([20]; Compound 1 10 g ai/ha alone): 45% | Effect (% visual injury), Obs ([21]; Compound 1 5 g ai/ha alone): 0% | Effect (% visual injury), Obs ([21]; Compound 1 10 g ai/ha alone): 0%

CS(=O)(=O)c1cc(C(F)(F)F)ccc1C(=O)c1cnoc1C1CC1 [Isoxaflutole, (5-cyclopropyl-4-isoxazolyl)[2-(methylsulfonyl)-4-(trifluoromethyl)phenyl]methanone]
Effect (% visual injury), Obs [1, 26]: 25% | Effect (% visual injury), Obs [2, 26]: 10% | Effect (% visual injury), Obs [3, 27]: 99% | Effect (% visual injury), Obs [4, 27]: 97% | Effect (% visual injury), Obs [5, 26]: 0% | Effect (% visual injury), Obs [6, 26]: 70% | Effect (% visual injury), Obs [7, 27]: 90% | Effect (% visual injury), Obs [8, 26]: 50% | Effect (% visual injury), Obs (maize (Zea mays, ZEAMX); [26]): 0% | Effect (% visual injury), Obs [9, 26]: 95% | Effect (% visual injury), Obs [10, 27]: 43% | Effect (% visual injury), Obs [11, 26]: 30% | Effect (% visual injury), Obs [12, 26]: 75% | Effect (% visual injury), Obs [13, 27]: 85% | Effect (% visual injury), Obs [14, 26]: 90% | Effect (% visual injury), Obs [15, 27]: 75% | Effect (% visual injury), Obs [16, 27]: 45% | Effect (% visual injury), Obs [17, 27]: 10% | Effect (% visual injury), Obs [18, 26]: 60% | Effect (% visual injury), Obs [19, 27]: 45% | Effect (% visual injury), Obs [20, 26]: 60% | Effect (% visual injury), Obs [21, 26]: 15%

Source: patent publication US20210161135A1, “WEED CONTROL FROM APPLICATIONS OF PYRIDINE CARBOXYLIC ACID HERBICIDES AND 4-HYDROXYPHENYL-PYRUVATE DIOXYGENASE (HPPD) INHIBITORS” (Dow AgroSciences LLC, priority 2018, published 2021)
